In test [1] the test system is Phosphorylated Ribosomal Protein S6 (RPS6) in THP-1 cells. The test can be described thus: THP-1 RPS6 ELISA Assay. In kind it is cell-based, Human. The settings on record: MCP-1 stimulated, phospho-RPS6 ELISA, read-out: THP p-RPS6 ELISA IC50. The procedure, abridged: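 Phospho-RPS6 in lysates measured by ELISA at 450 nm, corrected at 540 nm, after MCP-1 challenge (10 nM, 15 min) of THP-1 cells that were starved overnight and exposed to test compound for 2 h at 37° C, 2×10^5 cells/well. Curve fit of percent inhibition gives IC50.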
(In an ELISA, binding on a coated surface is turned into a signal by an enzyme label.)

For test [2], the target named is PI3Kγ (p110γ) Recombinant Human Protein (Homo sapiens (Human), UniProt P48736). The test can be described thus: PI3K-γ Scintillation Proximity Assay. Type of test: biochemical. The note with it: read-out: PI3K-gamma SPA IC50. The method in brief: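 Radiometric SPA: reaction at room temperature for 120 min using 2 μM ATP with [γ-33P]ATP tracer, 20 μM PIP2 substrate and 13 nM human PI3Kγ (MOPS pH 6.7, MgCl2, DTT, CHAPS; 2% DMSO). EDTA quench with WGA beads, scintillation count, and IC50 fit of percent-of-control activity.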
Sequence of PI3Kγ (p110γ) Recombinant Human Protein (P48736 whole entry): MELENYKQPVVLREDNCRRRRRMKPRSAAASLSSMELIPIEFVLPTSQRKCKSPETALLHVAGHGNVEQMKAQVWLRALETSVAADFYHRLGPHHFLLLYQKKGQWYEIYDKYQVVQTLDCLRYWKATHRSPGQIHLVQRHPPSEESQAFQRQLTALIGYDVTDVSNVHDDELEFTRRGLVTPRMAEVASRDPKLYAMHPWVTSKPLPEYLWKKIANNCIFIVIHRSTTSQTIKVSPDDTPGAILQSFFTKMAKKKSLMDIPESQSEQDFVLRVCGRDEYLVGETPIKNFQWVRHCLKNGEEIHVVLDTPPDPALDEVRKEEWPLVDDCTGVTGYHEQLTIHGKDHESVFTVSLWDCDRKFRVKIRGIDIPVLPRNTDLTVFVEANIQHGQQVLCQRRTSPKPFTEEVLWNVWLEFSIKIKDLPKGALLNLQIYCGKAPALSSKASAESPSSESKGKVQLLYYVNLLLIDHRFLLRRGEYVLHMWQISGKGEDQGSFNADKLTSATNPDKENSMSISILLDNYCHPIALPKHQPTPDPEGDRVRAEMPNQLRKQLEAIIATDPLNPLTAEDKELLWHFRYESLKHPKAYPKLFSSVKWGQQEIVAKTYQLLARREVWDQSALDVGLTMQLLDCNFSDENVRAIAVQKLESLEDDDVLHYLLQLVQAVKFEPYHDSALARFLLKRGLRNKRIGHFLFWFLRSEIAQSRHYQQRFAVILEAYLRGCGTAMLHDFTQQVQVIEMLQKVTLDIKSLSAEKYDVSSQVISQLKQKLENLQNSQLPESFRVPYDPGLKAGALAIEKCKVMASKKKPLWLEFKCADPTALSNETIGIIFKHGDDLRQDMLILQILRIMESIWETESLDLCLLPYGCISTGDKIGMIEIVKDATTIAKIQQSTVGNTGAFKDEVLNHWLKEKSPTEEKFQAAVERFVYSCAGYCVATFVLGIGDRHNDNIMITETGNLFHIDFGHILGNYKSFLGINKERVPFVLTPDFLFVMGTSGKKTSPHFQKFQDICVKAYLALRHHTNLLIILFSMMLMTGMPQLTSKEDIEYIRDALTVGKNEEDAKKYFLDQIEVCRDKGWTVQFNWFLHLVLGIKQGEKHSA

In test [3] the target is PI3Kδ (p110δ/p85α) Recombinant Human Protein (Homo sapiens (Human), UniProt O00329). The test can be described thus: PI3Kδ Scintillation Proximity Assay. In kind it is biochemical. The settings on record: read-out: PI3K-delta SPA IC50. The method in brief: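 Assay conditions: 2 μM ATP (radiolabelled), 20 μM PIP2, 3.4 nM PI3Kδ, 20 mM MOPS pH 6.7 with 10 mM MgCl2, 5 mM DTT, 0.03% CHAPS, 2 h at room temperature. Signal from bead-captured 33P product; IC50 versus solvent control.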
Sequence of PI3Kδ (p110δ/p85α) Recombinant Human Protein (O00329 whole entry): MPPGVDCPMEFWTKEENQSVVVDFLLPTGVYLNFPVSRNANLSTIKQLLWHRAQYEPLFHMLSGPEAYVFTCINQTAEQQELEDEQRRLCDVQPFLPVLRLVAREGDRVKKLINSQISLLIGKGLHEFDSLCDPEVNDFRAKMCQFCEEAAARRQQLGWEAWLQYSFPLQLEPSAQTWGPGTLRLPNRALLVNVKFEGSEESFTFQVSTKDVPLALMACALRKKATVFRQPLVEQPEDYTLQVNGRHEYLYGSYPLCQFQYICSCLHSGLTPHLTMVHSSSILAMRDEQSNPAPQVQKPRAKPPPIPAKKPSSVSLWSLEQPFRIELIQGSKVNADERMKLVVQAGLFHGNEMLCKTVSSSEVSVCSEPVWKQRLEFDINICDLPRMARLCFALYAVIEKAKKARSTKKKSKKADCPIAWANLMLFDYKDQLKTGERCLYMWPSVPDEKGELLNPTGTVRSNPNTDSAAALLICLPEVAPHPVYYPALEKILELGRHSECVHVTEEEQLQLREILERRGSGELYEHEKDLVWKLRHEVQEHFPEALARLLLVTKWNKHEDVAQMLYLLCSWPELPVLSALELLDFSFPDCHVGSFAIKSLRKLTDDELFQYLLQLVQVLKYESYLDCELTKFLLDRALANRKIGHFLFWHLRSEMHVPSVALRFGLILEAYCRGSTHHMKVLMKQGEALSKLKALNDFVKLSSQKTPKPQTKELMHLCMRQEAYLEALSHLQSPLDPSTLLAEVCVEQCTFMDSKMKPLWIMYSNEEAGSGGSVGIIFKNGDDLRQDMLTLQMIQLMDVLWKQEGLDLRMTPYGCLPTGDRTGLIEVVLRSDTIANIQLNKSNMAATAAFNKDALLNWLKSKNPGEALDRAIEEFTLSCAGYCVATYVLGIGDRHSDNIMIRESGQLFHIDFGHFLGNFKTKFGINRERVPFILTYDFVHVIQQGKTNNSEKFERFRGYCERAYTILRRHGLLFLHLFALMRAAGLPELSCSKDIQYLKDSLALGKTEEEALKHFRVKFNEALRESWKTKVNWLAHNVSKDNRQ
Sequence of PI3Kδ (p110δ/p85α) Recombinant Human Protein (P27986 whole entry partner): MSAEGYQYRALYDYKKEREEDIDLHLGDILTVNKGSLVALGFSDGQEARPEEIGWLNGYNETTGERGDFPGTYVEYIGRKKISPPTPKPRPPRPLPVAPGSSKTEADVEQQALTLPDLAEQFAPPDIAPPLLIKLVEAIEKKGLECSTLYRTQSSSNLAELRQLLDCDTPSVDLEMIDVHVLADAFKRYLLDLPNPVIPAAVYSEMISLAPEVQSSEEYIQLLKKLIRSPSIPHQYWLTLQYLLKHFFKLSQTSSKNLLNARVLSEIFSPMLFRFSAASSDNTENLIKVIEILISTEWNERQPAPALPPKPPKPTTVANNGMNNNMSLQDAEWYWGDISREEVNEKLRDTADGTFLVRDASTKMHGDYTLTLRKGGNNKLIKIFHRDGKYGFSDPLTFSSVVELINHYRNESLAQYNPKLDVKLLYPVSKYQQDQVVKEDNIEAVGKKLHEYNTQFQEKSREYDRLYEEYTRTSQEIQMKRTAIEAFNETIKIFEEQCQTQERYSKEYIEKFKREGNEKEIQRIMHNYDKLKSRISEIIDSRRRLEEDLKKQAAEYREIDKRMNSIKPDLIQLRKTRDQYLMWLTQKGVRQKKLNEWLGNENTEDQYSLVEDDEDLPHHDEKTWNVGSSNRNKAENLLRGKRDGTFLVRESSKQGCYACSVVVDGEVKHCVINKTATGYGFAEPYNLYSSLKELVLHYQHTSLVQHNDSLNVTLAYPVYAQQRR

Counter-ions that a name gives are not always drawn. Like-named read-outs stand apart in the source and are kept apart here.

Turning to `Cc1[nH]c(-c2cc(-c3cncc(S(C)(=O)=O)c3)ccn2)nc1C(=O)NC1CCCC1` [Example 243, N-Cyclopentyl-5-methyl-2-[5-(methylsulfonyl)-3,4′-bipyridin-2′-yl]-1H-imidazole-4-carboxamide], the values for the IC50 in test [1] (Homo sapiens), in test [2] and in test [3] were not above 300 nM, not above 50 nM and not above 50 nM, respectively.
In the case of `Cc1[nH]c(-c2cc(-c3cncc(S(C)(=O)=O)c3)ccn2)nc1C(=O)N1CCOCC1` [Example 244, 2′-[5-Methyl-4-(morpholin-4-ylcarbony1)-1H-imidazol-2-yl]-5-(methylsulfony1)-3,4′-bipyridine], the IC50 in test [1] was more than 5000 nM; in test [2], not above 100 nM; in test [3], not above 50 nM.
Regarding `Cc1[nH]c(-c2cc(-c3cncc(S(C)(=O)=O)c3)ccn2)nc1C(=O)N1CC[C@@H](O)C1` [Example 245], the IC50 in test [1] is more than 5000 nM; in test [2] it was not above 50 nM; in test [3] it was not above 50 nM.
For the compound `Cc1[nH]c(-c2cc(-c3cncc(S(C)(=O)=O)c3)ccn2)nc1C(=O)N1CC(O)C1` [Example 247, l-({5-Methyl-2-[5-(methylsulfonyl)-3,4′-bipyridin-2′-yl]-1H-imidazol-4-yl}carbonyl)azetidin-3-ol], the values for the IC50 in test [1], in test [2] and in test [3] were more than 5000 nM, not above 50 nM and not above 50 nM, respectively.
For the compound `Cc1[nH]c(-c2cc(-c3cncc(S(C)(=O)=O)c3)ccn2)nc1C(=O)N1CC(C#N)C1` [Example 248, 1-({5-Methyl-2-[5-(methylsulfonyl)-3,4′-bipyridin-2′-yl]-lH-imidazol-4-yl}carbonyl)azetidine-3-carbonitrile], the IC50 in test [1] was 1000 to 5000 nM; in test [2] it was not above 50 nM; in test [3] it was not above 50 nM.
Take `Cc1[nH]c(-c2cc(-c3cncc(S(C)(=O)=O)c3)ccn2)nc1C(N)=O` [Example 249, 5-Methyl-2-[5-(methylsulfonyl)-3,4′-bipyridin-2′-yl]-1H-imidazole-4-carboxamide trifluoroacetate salt]: the IC50 is 1000 to 5000 nM in test [1] (Homo sapiens), not above 50 nM in test [2] and not above 50 nM in test [3].
Take `CNC(=O)c1nc(-c2cc(-c3cncc(S(C)(=O)=O)c3)ccn2)[nH]c1C` [Example 250, N,5-Dimethyl-2-[5-(methylsulfonyl)-3,4′-bipyridin-2′-yl]-lH-imidazole-4-carboxamide trifluoroacetate salt]: the IC50 in test [1] was 300 to 1000 nM; in test [2] it was not above 50 nM; in test [3], not above 50 nM.
Turning to `CCNC(=O)c1nc(-c2cc(-c3cncc(S(C)(=O)=O)c3)ccn2)[nH]c1C` [Example 252, N-Ethyl-5-methyl-2-[5-(methylsulfonyl)-3,4′-bipyridin-2′-yl]-1H-imidazole-4-carboxamide trifluoroacetate salt], the IC50 in test [1] (Homo sapiens) is not above 300 nM; in test [2] it was not above 50 nM; in test [3] it was not above 50 nM.
As for `Cc1[nH]c(-c2cc(-c3cncc(S(C)(=O)=O)c3)ccn2)nc1C(=O)NC(C)C` [Example 253, N-Isopropyl-5-methyl-2-[5-(methylsulfonyl)-3,4′-bipyridin-2′-yl]-1H-imidazole-4-carboxamide trifluoroacetate salt], the IC50 in test [1] (Homo sapiens) is not above 300 nM; in test [2], not above 50 nM; in test [3], not above 50 nM.
Turning to `Cc1[nH]c(-c2cc(-c3cncc(S(C)(=O)=O)c3)ccn2)nc1C(=O)NC1CCOCC1` [Example 254, 5-Methyl-2-[5-(methylsulfonyl)-3,4′-bipyridin-2′-yl]-N-(tetrahydro-2H-pyran-4-yl)-1H-imidazole-4-carboxamide trifluoroacetate salt], the IC50 in test [1] (Homo sapiens) is not above 300 nM; in test [2], not above 50 nM; in test [3], not above 50 nM.
As to `Cc1[nH]c(-c2cc(-c3cncc(S(C)(=O)=O)c3)ccn2)nc1C(=O)N[C@H]1CCOC1` [Example 255, 5-Methyl-2-[5-(methylsulfonyl)-3,4′-bipyridin-2′-yl]-N-[(3,S)-tetrahydrofuran-3-yl]-lH-imidazole-4-carboxamide trifluoroacetate salt], the IC50 in test [1] is 300 to 1000 nM; in test [2], not above 50 nM; in test [3], not above 50 nM.
